Patent US20230312542A1, “HYDROXYPYRROLIDINE DERIVATIVE AND MEDICINAL APPLICATION THEREOF” (MITSUBISHI TANABE PHARMA CORPORATION, priority 2020, published 2023)

Each molecule was assayed against VHL (co-expressed with Elongin B and Elongin C) (Homo sapiens (Human), UniProt P40337) (assay: Measurement of intermolecular interactions using surface plasmon resonance (Biacore T200), Kd value for VHL). Conditions: not given.
VHL (co-expressed with Elongin B and Elongin C), sequence (P40337 whole entry, looked up): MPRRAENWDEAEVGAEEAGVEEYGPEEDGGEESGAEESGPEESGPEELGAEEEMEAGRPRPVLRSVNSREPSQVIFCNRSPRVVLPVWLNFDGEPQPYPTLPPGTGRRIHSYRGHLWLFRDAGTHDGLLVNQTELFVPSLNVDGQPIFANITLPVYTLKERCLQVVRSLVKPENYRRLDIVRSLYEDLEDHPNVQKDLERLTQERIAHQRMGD
VHL (co-expressed with Elongin B and Elongin C), sequence (Q15370 whole entry partner, looked up): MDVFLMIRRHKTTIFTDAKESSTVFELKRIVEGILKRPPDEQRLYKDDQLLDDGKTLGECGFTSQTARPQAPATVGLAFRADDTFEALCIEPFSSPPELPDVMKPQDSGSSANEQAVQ
VHL (co-expressed with Elongin B and Elongin C), sequence (Q15369 whole entry partner, looked up): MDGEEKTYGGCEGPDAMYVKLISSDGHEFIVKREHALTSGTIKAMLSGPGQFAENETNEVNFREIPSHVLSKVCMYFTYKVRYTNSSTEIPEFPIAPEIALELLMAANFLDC
Format: binding
Excerpt: As the device, Biacore T200 (manufactured by GE Healthcare) was used. VHL was obtained by co-expressing Elongin B and Elongin C with a Twin-Strep-tag added to the N-terminus. As the sensor chip, Sensor chip CM5 (manufactured by GE Healthcare) was used. First, Strep-Tactin XT (manufactured by GE Healthcare) was immobilized on the sensor chip by amine coupling. Thereafter, VHL was immobilized using the affinity of Strep-Tactin XT and Twin-Strep-tag, and VHL was further immobilized on the sensor chip by amine coupling.
As the running buffer, a mixed solution of 20 mM HEPES pH 7.5, 150 mM NaCl, 1 mM TCEP, 0.005% Tween 20, and 2% DMSO was used. […] The Contact time and the Dissociation time were determined according to the properties of the compounds. For many compounds, 60 seconds and 120 seconds were respectively used.
COc1cc(C(C(=O)N2C[C@H](O)C[C@H]2c2nc(C(=O)N3CCC(Nc4ccccc4)CC3)c[nH]2)C(C)C)on1 (stereo partly drawn) [Example 150, 1-[(2S,4R)-2-[4-(4-anilinopiperidine-1-carbonyl)-1H-imidazol-2-yl]-4-hydroxypyrrolidin-1-yl]-2-(3-methoxyisoxazol-5-yl)-3-methylbutan-1-one] showed a Kd of 1 to 10 µM.

Same assay, conditions: SPR, immobilized VHL, 25° C.; read-out: Kd
For CNC(=O)c1nc([C@@H]2C[C@@H](O)CN2C(=O)C(c2cc(OC)no2)C(C)C)[nH]c1-c1ccc(OC)cc1 (stereo partly drawn) [Example 75, 2-[(2S,4R)-4-hydroxy-1-[2-(3-methoxy-1,2-oxazol-5-yl)-3-methylbutanoyl]pyrrolidin-2-yl]-5-(4-methoxyphenyl)-N-methyl-1H-imidazole-4-carboxamide], the Kd was 1 to 10 µM.
COc1cc(C(C(=O)N2C[C@H](O)C[C@H]2c2nc(C(=O)N3CCC(OCc4ccccc4)CC3)c[nH]2)C(C)C)on1 (stereo partly drawn) [Example 141, 1-[(2S,4R)-2-[4-(4-benzyloxypiperidine-1-carbonyl)-1H-imidazol-2-yl]-4-hydroxypyrrolidin-1-yl]-2-(3-methoxyisoxazol-5-yl)-3-methylbutan-1-one] gave a Kd of 1 to 10 µM.
COc1cc(C(C(=O)N2C[C@H](O)C[C@H]2c2nccn2Cc2ccccc2Oc2ccccc2)C(C)C)on1 (stereo partly drawn) [Example 69, 1-[(2S,4R)-4-hydroxy-2-[1-[(2-phenoxyphenyl)methyl]imidazol-2-yl]pyrrolidin-1-yl]-2-(3-methoxy-1,2-oxazol-5-yl)-3-methylbutan-1-one] was tested, and the Kd was 10 to 50 µM.
COc1cc(C(C(=O)N2C[C@H](O)C[C@H]2c2nccn2Cc2ccnc(-c3ccc(C(F)(F)F)cc3)c2)C(C)C)on1 (stereo partly drawn) [Example 102, 1-[(2S,4R)-4-hydroxy-2-[1-[[2-[4-(trifluoromethyl)phenyl]-4-pyridyl]methyl]imidazol-2-yl]pyrrolidin-1-yl]-2-(3-methoxyisoxazol-5-yl)-3-methylbutan-1-one] gave a Kd of 10 to 50 µM.
For COc1cc(C(C(=O)N2C[C@H](O)C[C@H]2c2nc(C(=O)N(C)Cc3ccc(-c4ccnc(C)c4)cc3)c[nH]2)C(C)C)on1 (stereo partly drawn) [Example 153, 2-[(2S,4R)-4-hydroxy-1-[2-(3-methoxyisoxazol-5-yl)-3-methylbutanoyl]pyrrolidin-2-yl]-N-methyl-N-[[4-(2-methyl-4-pyridyl)phenyl]methyl]-1H-imidazole-4-carboxamide], the Kd was less than 1 µM.
For COc1cc(C(C(=O)N2C[C@H](O)C[C@H]2c2nc(C(=O)N3CCC(c4ccc(C)cn4)CC3)c[nH]2)C(C)C)on1 (stereo partly drawn) [Example 144, 1-[(2S,4R)-4-hydroxy-2-[4-[4-(5-methyl-2-pyridyl)piperidine-1-carbonyl]-1H-imidazol-2-yl]pyrrolidin-1-yl]-2-(3-methoxyisoxazol-5-yl)-3-methylbutan-1-one], the Kd was 1 to 10 µM.
Molecule COc1cc(C(C(=O)N2C[C@H](O)C[C@H]2c2nccn2CC(=O)Nc2ccccc2)C(C)C)on1 (stereo partly drawn) [Example 96, 2-[2-[(2S,4R)-4-hydroxy-1-[2-(3-methoxy-1,2-oxazol-5-yl)-3-methylbutanoyl]pyrrolidin-2-yl]imidazol-1-yl]-N-phenylacetamide] has a Kd of 10 to 50 µM.
In the case of CC(=O)N[C@H](C(=O)N1C[C@H](O)C[C@H]1c1nc(C(=O)N(C)Cc2cccc(Cl)c2)c[nH]1)C(C)(C)C [Example 15, 2-[(2S,4R)-1-[(2S)-2-acetamido-3,3-dimethylbutanoyl]-4-hydroxypyrrolidin-2-yl]-N-[(3-chlorophenyl)methyl]-N-methyl-1H-imidazole-4-carboxamide], the Kd is reported as 1 to 10 µM.
For CC(=O)N[C@H](C(=O)N1C[C@H](O)C[C@H]1c1ncc(-c2ccc(-c3scnc3C)cc2)[nH]1)C(C)(C)C [Example 89, N-[(2S)-1-[(2S,4R)-4-hydroxy-2-[5-[4-(4-methyl-1,3-thiazol-5-yl)phenyl]-1H-imidazol-2-yl]pyrrolidin-1-yl]-3,3-dimethyl-1-oxobutan-2-yl]acetamide], the Kd was 1 to 10 µM.
Molecule CC(=O)N[C@H](C(=O)N1C[C@H](O)C[C@H]1c1ncc(Cc2ccc(Br)cc2)[nH]1)C(C)(C)C [Example 81, N-[(2S)-1-[(2S,4R)-2-[5-[(4-bromophenyl)methyl]-1H-imidazol-2-yl]-4-hydroxypyrrolidin-1-yl]-3,3-dimethyl-1-oxobutan-2-yl]acetamide] has a Kd of 1 to 10 µM.
Work on COc1cc(C(C(=O)N2C[C@H](O)C[C@H]2c2nccn2Cc2cccc(Oc3ccccc3)c2)C(C)C)on1 (stereo partly drawn) [Example 65, 1-[(2S,4R)-4-hydroxy-2-[1-[(3-phenoxyphenyl)methyl]imidazol-2-yl]pyrrolidin-1-yl]-2-(3-methoxy-1,2-oxazol-5-yl)-3-methylbutan-1-one] yielded a Kd of 10 to 50 µM.
COc1cc(C(C(=O)N2C[C@H](O)C[C@H]2c2nc(C(=O)N(C)Cc3ccc(-c4scnc4C)cc3)c[nH]2)C(C)C)on1 (stereo partly drawn) [Example 54, 2-[(2S,4R)-4-hydroxy-1-[2-(3-methoxy-1,2-oxazol-5-yl)-3-methylbutanoyl]pyrrolidin-2-yl]-N-methyl-N-[[4-(4-methyl-1,3-thiazol-5-yl)phenyl]methyl]-1H-imidazole-4-carboxamide] gave a Kd of less than 1 µM.
